Values quoted from earlier work as cited in patent US12329853B2, “Compositions and methods for treating ocular diseases” (OCULAR THERAPEUTIX, INC., priority 2020, dated 2025).

Columns and labels:
FP prostanoid receptor = FP prostanoid receptor (Homo sapiens, UniProt P43088)
[1] = organic solvents typically employed for fabrication of microspheres using solvent evaporation

Sequence of FP prostanoid receptor (P43088 whole entry): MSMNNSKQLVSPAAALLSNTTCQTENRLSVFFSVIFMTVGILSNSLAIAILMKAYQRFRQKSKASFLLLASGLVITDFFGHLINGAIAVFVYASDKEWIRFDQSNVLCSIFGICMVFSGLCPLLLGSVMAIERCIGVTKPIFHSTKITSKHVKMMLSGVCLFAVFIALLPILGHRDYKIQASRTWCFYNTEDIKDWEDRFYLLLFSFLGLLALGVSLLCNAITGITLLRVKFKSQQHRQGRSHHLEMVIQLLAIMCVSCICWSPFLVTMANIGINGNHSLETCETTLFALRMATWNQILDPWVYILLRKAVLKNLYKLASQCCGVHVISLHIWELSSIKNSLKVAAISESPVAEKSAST

SMILES	Selectivity for the FP prostanoid receptor compared to latanoprost (FP prostanoid receptor)	Potency compared to latanoprost (FP prostanoid receptor; FP prostanoid receptor)	Solubility in organic solvents [1]
O=C(O)CCC/C=C\C[C@@H]1[C@@H](/C=C/[C@@H](O)COc2cccc(C(F)(F)F)c2)[C@H](O)C[C@@H]1O [free acid of travoprost]	greater selectivity	higher potency	–
CC(C)OC(=O)CCC/C=C\C[C@@H]1[C@@H](CC[C@@H](O)CCc2ccccc2)[C@H](O)C[C@@H]1O [Latanoprost]	–	–	readily soluble
